Tested on: benzodiazepine receptors
Test: Flunitrazepam Receptor Binding Assay, FBA Test No. 1 (3H-flunitrazepam displacement, calf caudate)
Details: final concentration 1×10^-6 M, lower = more displacement of 3H-flunitrazepam, 1 µM

| Compound | Response - % of Control (percent specifically bound compared to control) |
| --- | --- |
| CC(c1ccccc1)N1CCn2c1nc1ccc(Cl)cc1c2=O (single isomer, unassigned) [Example 2D] | 15 % of Control |
| O=c1c2cc(Cl)ccc2nc2n1CCN2Cc1ccccc1 [Example 2A] | 1 % of Control |
| CC1Cn2c(nc3ccc(Cl)cc3c2=O)N1Cc1ccccc1 (stereo not shown) [Example 2B] | 5 % of Control |
| O=c1c2cc(Cl)ccc2nc2n1CCN2Cc1ccc(Cl)cc1 [Example 2E, 1-(p-chlorobenzyl)-7-chloro-2,3-dihydro-imidazo[2,1-b]quinazolin-5(1H)-one] | 5 % of Control |

— patent publication US4452787A, “1-Substituted tricyclic quinazolinones having biological activity as tranquilizers” (Sandoz, Inc., priority 1982, dated 1984)
